Measurements published in patent publication US8629277B2, “Styrenyl 1,2,4-oxadiazole compounds” (Piramal Enterprises Limited, priority 2010, dated 2014).
Where a name gives a salt, the structure may show the parent alone. Read-outs that look alike come from different tables or passages of the source.

Assays:
[1] = molecular target: T1, Ba/F3 Bcr-Abl/WT (Homo sapiens, UniProt P00519); experiment: Cell proliferation and cytotoxicity CCK-8 assay; format: cell-based; details: imatinib sensitive cell line; CCK-8, 72 h; read-out: Inhibitory concentrations (IC50) Ba/F3 Bcr-Abl/WT
T1 construct: fused on or other part: P11274 (Breakpoint cluster region protein)
From the text: (§1) Cell Proliferation and Cytotoxicity CCK-8 Assay:
(§2) Cell Counting Kit-8 (CCK-8) assay is a sensitive colorimetric assay for the determination of number of viable cells in cell proliferation and cytotoxicity assays. Cell Counting Kit-8 (CCK-8) utilizes Dojindo's highly water-soluble tetrazolium salt. The amount of the formazan dye generated by dehydrogenases in cells is directly proportional to the number of living cells.
(§3) The cell lines described in Table 1 were used to test the antiproliferative activity of the compounds of the present invention.
(§4) Cells were seeded at a density of ˜5×10^3 per well (0.09 mL) in a transparent 96-well tissue culture plate (NUNC, USA) and allowed to incubate at 37° C., 5% CO2 incubator for 2-6 h. Different concentrations of compounds of the present invention were added to the wells of the culture plate in triplicate. […] Plates were further incubated in an incubator at 37° C. in presence of 5% CO2 for 72 h. 10 μL of the CCK-8 solution was added to each well and plate was incubated for 1-4 h in the incubator. The absorbance was measured at 450 nm using a microplate reader. The percent inhibition and IC50 were calculated in comparison with control values.

[2] = molecular target: Ba/F3 Bcr-Abl/T315I (Homo sapiens, UniProt P00519, T315I, cells depend on it); details: read-out: Inhibitory concentrations (IC50) Ba/F3 Bcr-Abl/T315I; imatinib resistant cell line; CCK-8, 72 h
From the text: as §1, §2, §3, §4

[3] = tested on: K562; experiment: Cell proliferation and cytotoxicity CCK-8 assay; format: cell-based, human; details: imatinib sensitive cell line K562, CCK-8, 72 h, read-out: Inhibitory concentrations (IC50) K562
[4] = tested on: E255V; experiment: Flow cytometric analysis of apoptosis (PI staining); format: cell-based
Protocol: (§5) Effect of the Compounds of Present Invention in Bcr-Abl Mutated Imatinib Mesylate-Resistant Cell Lines on Cell Cycle and Apoptosis Using Flow Cytometry.
(§6) The assay was carried out as in reference, FEBS Letters, 2007, 581, 7, 1329-1334. […] At the end of incubation, cells were harvested by centrifugation at 1000 rpm for 10 minutes, washed with phosphate buffered saline (PBS) and gradually resuspended in 70% ice-cold ethanol (to facilitate the permeablisation of stains). Cell suspension was stored for a minimum period of 4 h before staining with propidium iodide (PI). Fixed cells were stained with PI (80 μg/mL) in presence of RNase A (50 μg/mL), and read on Becton Dickinson FACS Calibur (USA) for cell cycle analysis.

[5] = tested on: T315I; experiment: as above; format: cell-based
Protocol: as §5, §6

[6] = tested on: Y253; experiment: as above; format: cell-based
Protocol: as §5, §6

[7] = tested on: Ba/F3; experiment: as above; format: cell-based
Protocol: as §5, §6

[8] = tested on: K562; experiment: as above; format: cell-based, human
Protocol: as §5, §6

| Compound | GI50 [2] | GI50 [1] | IC50 ([3]; Homo sapiens) | other results |
| --- | --- | --- | --- | --- |
| CCCc1noc(C=Cc2ccc(O)c(NS(C)(=O)=O)c2)n1 [Compound of Example 10, N-{2-Hydroxy-5-[2-(3-propyl-[1,2,4]oxadiazol-5-yl)-vinyl]-phenyl}-methanesulfonamide] | 11 to 100 µM | 11 to 100 µM | > 100 µM | – |
| CN1CCC(c2noc(C=Cc3ccc(O)c(O)c3)n2)CC1 [Compound of Example 20, 4-[2-(3-Piperidin-4,1-methyl-[1,2,4]oxadiazol-5-yl)-vinyl]-benzene-1,2-diol] | 11 to 100 µM | 11 to 100 µM | – | IC50 [3]: 11 to 100 µM |
| Cc1ccc(NC(=O)c2ccc(CN3CCN(C)CC3)cc2)cc1Nc1nccc(-c2cccnc2)n1 [imatinib mesylate, Imatinib mesylate, reference compound] | – | – | – | % Apoptosis by Flow Cytometry Analysis ([4]; 3X IC50, 96 h time point): 61%; % Apoptosis by Flow Cytometry Analysis ([4]; 5X IC50, 48 h time point): 96.7%; % Apoptosis by Flow Cytometry Analysis ([4]; 5X IC50, 96 h time point): 98.4%; % Apoptosis by Flow Cytometry Analysis ([5]; 3X IC50, 96 h time point): 26.6%; % Apoptosis by Flow Cytometry Analysis ([5]; 5X IC50, 48 h time point): 4.3%; % Apoptosis by Flow Cytometry Analysis ([5]; 5X IC50, 96 h time point): 25.2%; % Apoptosis by Flow Cytometry Analysis ([6]; 3X IC50, 96 h time point): 85.2%; % Apoptosis by Flow Cytometry Analysis ([6]; 5X IC50, 48 h time point): 78%; % Apoptosis by Flow Cytometry Analysis ([6]; 5X IC50, 96 h time point): 98.2%; % Apoptosis by Flow Cytometry Analysis ([7]; 3X IC50, 96 h time point): 51%; % Apoptosis by Flow Cytometry Analysis ([7]; 5X IC50, 48 h time point): 40.3%; % Apoptosis by Flow Cytometry Analysis ([7]; 5X IC50, 96 h time point): 31%; % Apoptosis by Flow Cytometry Analysis ([8]; 3X IC50, 96 h time point): 95%; % Apoptosis by Flow Cytometry Analysis ([8]; 5X IC50, 48 h time point): 3.9%; % Apoptosis by Flow Cytometry Analysis ([8]; 5X IC50, 96 h time point): 92.6% |
| CN(C)CCN1CCC(Cc2noc(C=Cc3ccc(O)c(O)c3)n2)CC1 [Compound of Example 24, 4-(2-{3-[1-(2-Dimethylamino-ethyl)-piperidin-4-ylmethyl]-[1,2,4]oxadiazol-5-yl}-vinyl)-benzene-1,2-diol] | 11 to 100 µM | 11 to 100 µM | 11 to 100 µM | – |
| Oc1ccc(C=Cc2nc(C3CCCCC3)no2)cc1O [Compound of Example 61, 4-[2-(3-Cyclohexyl-[1,2,4]oxadiazol-5-yl)-vinyl]-benzene-1,2-diol] | < 10 µM | < 10 µM | 11 to 100 µM | – |
| Oc1ccc(C=Cc2nc(CC3CCN(Cc4ccccc4)CC3)no2)cc1O [Compound of Example 31, 4-{2-[3-(1-Benzyl-piperidin-4-ylmethyl)-[1,2,4]oxadiazol-5-yl]-vinyl}-benzene-1,2-diol] | 11 to 100 µM | 11 to 100 µM | 11 to 100 µM | – |
| CCCc1nc(C=Cc2ccc(O)c(N)c2)no1 [Compound of Example 12, 2-Amino-4-[2-(5-propyl-[1,2,4]oxadiazol-3-yl)-vinyl]-phenol] | < 10 µM | 11 to 100 µM | 11 to 100 µM | – |
| CC(C)N1CCC(Cc2noc(C=Cc3ccc(O)c(O)c3)n2)CC1 [Compound of Example 22, 4-{2-[3-(1-Isopropyl-piperidin-4-ylmethyl)-[1,2,4]oxadiazol-5-yl]-vinyl}-benzene-1,2-diol] | 11 to 100 µM | 11 to 100 µM | 11 to 100 µM | – |
| CCc1noc(C=Cc2ccc(O)c(O)c2)n1 [Compound of Example 2, 4-[2-(3-Ethyl-[1,2,4]oxadiazol-5-yl)-vinyl]-benzene-1,2-diol] | < 10 µM | < 10 µM | < 10 µM | – |
| Oc1ccc(C=Cc2nc(-c3cccnc3)no2)cc1O [Compound of Example 55, 4-[2-(3-Pyridin-3-yl-[1,2,4]oxadiazol-5-yl)-vinyl]-benzene-1,2-diol] | < 10 µM | < 10 µM | 11 to 100 µM | – |
| CCCCCCc1noc(C=Cc2ccc(O)c(O)c2)n1 [Compound of Example 43] | < 10 µM | < 10 µM | – | IC50 [3]: < 10 µM |
| Cc1noc(C=Cc2ccc(O)c(O)c2)n1 [Compound of Example 1, 4-[2-(3-Methyl-[1,2,4]oxadiazol-5-yl)-vinyl]-benzene-1,2-diol] | 11 to 100 µM | 11 to 100 µM | 11 to 100 µM | – |
| CCCCCc1noc(C=Cc2ccc(O)c(O)c2)n1 [Compound of Example 40, 4-[2-(3-Pentyl-[1,2,4]oxadiazol-5-yl)-vinyl]-benzene-1,2-diol] | < 10 µM | < 10 µM | < 10 µM | – |

Second part, led by results:

| GI50 [2] | Compound | GI50 [1] | IC50 ([3]; Homo sapiens) | other results |
| --- | --- | --- | --- | --- |
| < 10 µM | Oc1ccc(C=Cc2nc(C3CCCCCC3)no2)cc1O [Compound of Example 58, 4-[2-(3-Cycloheptyl-[1,2,4]oxadiazol-5-yl)-vinyl]-benzene-1,2-diol] | < 10 µM | 11 to 100 µM | – |
| < 10 µM | Oc1ccc(C=Cc2nc(CC3CCCCC3)no2)cc1O [Compound of Example 46, 4-[2-(3-Cyclohexylmethyl-[1,2,4]oxadiazol-5-yl)-vinyl]-benzene-1,2-diol] | < 10 µM | < 10 µM | – |
| < 10 µM | CCCCCCCCc1noc(C=Cc2ccc(O)c(O)c2)n1 [Compound of Example 49, 4-[2-(3-Octyl-[1,2,4]oxadiazol-5-yl)-vinyl]-benzene-1,2-diol] | < 10 µM | < 10 µM | – |
| < 10 µM | Oc1ccc(C=Cc2nc(C3CC3)no2)cc1O [Compound of Example 37, 4-[2-(3-Cyclopropyl-[1,2,4]oxadiazol-5-yl)-vinyl]-benzene-1,2-diol] | < 10 µM | < 10 µM | – |
| < 10 µM | CCCCCCCCCc1noc(C=Cc2ccc(O)c(O)c2)n1 [Compound of Example 34, 4-[2-(3-Nonyl-[1,2,4]oxadiazol-5-yl)-vinyl]-benzene-1,2-diol] | < 10 µM | 11 to 100 µM | – |
| < 10 µM | CCCCCCCc1noc(C=Cc2ccc(O)c(O)c2)n1 [Compound of Example 52, 4-[2-(3-Heptyl-[1,2,4]oxadiazol-5-yl)-vinyl]-benzene-1,2-diol] | < 10 µM | < 10 µM | – |
